Measurements as given in patent US20090111778A1, “2-Keto-Oxazoles as Modulators of Fatty Acid Amide Hydrolase” (priority 2005, published 2009).
Where two headings read alike, the source gives them in different places.

Columns and labels:
human FAAH = molecular target: T1, human FAAH (Homo sapiens, UniProt O00519); assay: Assay Method 1: FAAH assay, hydrolysis of 3H-anandamide by homogenate of SK-N-MC cells transfected with human FAAH; type: biochemical
T1 construct: expressed in transfected cells
T1 sequence (O00519 1-579): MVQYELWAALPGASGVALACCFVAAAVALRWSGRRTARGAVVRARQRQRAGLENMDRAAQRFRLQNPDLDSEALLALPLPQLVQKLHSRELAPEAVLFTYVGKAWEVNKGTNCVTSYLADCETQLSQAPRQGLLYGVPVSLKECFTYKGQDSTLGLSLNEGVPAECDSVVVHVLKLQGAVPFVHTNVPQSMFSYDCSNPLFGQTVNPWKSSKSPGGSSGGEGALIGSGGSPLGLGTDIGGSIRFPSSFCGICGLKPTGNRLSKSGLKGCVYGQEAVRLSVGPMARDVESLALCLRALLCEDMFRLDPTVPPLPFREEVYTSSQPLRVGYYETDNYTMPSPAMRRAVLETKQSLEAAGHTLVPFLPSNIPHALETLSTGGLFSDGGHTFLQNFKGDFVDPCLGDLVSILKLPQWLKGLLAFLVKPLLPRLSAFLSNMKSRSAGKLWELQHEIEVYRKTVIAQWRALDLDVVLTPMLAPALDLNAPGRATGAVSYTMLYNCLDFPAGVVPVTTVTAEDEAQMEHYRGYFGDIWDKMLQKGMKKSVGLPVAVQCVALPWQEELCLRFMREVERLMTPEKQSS
Method: A. Transfection of Cells with Human FAAH
(§1) A 10-cm tissue culture dish with a confluent monolayer of SK-N-MC cells was split 2 days (d) prior to transfection. Using sterile technique, the media was removed and the cells were detached from the dish by the addition of trypsin. One fifth of the cells were then placed onto a new 10-cm dish. Cells were grown in a 37° C. incubator with 5% CO2 in Minimal Essential Media Eagle with 10% Fetal Bovine Serum. After 2 d, cells were approximately 80% confluent. These cells were removed from the dish with trypsin and pelleted in a clinical centrifuge. The pellet was re-suspended in 400 μL complete media and transferred to an electroporation cuvette with a 0.4 cm gap between the electrodes. Supercoiled human FAAH cDNA (1 μg) was added to the cells and mixed. The voltage for the electroporation was set at 0.25 kV, and the capacitance was set at 960 μF. After electroporation, the cells were diluted into complete media (10 mL) and plated onto four 10-cm dishes. Because of the variability in the efficiency of electroporation, four different concentrations of cells were plated. The ratios used were 1:20, 1:10, and 1:5, with the remainder of the cells being added to the fourth dish. The cells were allowed to recover for 24 h before adding the selection media (complete media with 600 μg/mL G418). After 10 d, dishes were analyzed for surviving colonies of cells. Dishes with well-isolated colonies were used. Cells from individual colonies were isolated and tested.
The assay mixture consisted of […] of the cell homogenate, 10 μL of the test compound, and 40 μL of anandamide [1-^3H-ethanolamine] (3H-AEA, Perkin-Elmer, 10.3 Ci/mmol), which was added last, for a final tracer concentration of 80 nM. The reaction mixture was incubated at rt for 1 h. During the incubation, 96-well Multiscreen filter plates (catalog number MAFCNOB50; Millipore, Bedford, Mass., USA) were loaded with 25 μL of activated charcoal (Multiscreen column loader, catalog number MACL09625, Millipore) and washed once with 100 μL of MeOH. Also during the incubation, 96-well DYNEX MicroLite plates (catalog number NL510410) were loaded with 100 μL of MicroScint40 (catalog number 6013641, Packard Bioscience, Meriden, Conn., USA). After the 1 h incubation, 60 μL of the reaction mixture were transferred to the charcoal plates, which were then assembled on top of the DYNEX plates using Centrifuge Alignment Frames (catalog number MACF09604, Millipore). The unbound labeled ethanolamine was centrifuged through to the bottom plate (5 min at 2000 rpm), which was preloaded with the scintillant, as described above. The plates were sealed and left at rt for 1 h before counting on a Hewlett Packard TopCount.

rat FAAH = molecular target: T2, rat FAAH (Rattus norvegicus, UniProt P97612); assay: Assay Method 2: FAAH assay, hydrolysis of 3H-anandamide by homogenate of SK-N-MC cells transfected with rat FAAH; type: biochemical; conditions: T84 or transfected SK-N-MC cell homogenate, 3H-AEA tracer 80 nM, rt 1 h, pH 9
T2 construct: expressed in transfected cells
T2 sequence (P97612 1-579): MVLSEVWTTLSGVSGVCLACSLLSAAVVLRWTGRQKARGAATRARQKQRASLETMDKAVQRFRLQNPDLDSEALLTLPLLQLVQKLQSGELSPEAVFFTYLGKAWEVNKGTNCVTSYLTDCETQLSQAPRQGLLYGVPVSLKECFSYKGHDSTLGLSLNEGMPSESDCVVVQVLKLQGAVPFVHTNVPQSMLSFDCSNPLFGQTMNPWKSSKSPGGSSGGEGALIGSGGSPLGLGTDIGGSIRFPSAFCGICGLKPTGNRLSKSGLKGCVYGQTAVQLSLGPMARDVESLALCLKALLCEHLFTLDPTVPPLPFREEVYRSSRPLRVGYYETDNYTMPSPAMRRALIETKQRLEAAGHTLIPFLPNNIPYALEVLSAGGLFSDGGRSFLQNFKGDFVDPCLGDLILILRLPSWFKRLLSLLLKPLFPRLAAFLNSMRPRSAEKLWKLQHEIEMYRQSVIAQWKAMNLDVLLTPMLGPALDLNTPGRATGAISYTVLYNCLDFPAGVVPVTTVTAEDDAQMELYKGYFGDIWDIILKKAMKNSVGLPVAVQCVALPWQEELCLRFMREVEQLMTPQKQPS
Method: as §1, with “A. Transfection of Cells with Rat FAAH A 10-cm” for “A 10-cm”, “electrodes. Supercoiled rat FAAH cDNA” for “electrodes. Supercoiled human FAAH cDNA”, “and tested. […] B. FAAH Assay […] The reaction mixture was incubated at rt for 1 h. During the incubation, 96-well Multiscreen filter plates (catalog number MAFCNOB50; Millipore, Bedford, Mass., USA) were loaded with 25 μL of activated charcoal (Multiscreen column loader, catalog number MACL09625, Millipore) and washed once with 100 μL of MeOH. Also during the incubation, 96-well DYNEX MicroLite plates (catalog number NL510410) were loaded with 100 μL of MicroScint40 (catalog number 6013641, Packard Bioscience, Meriden, Conn., USA). After the 1 h incubation, 60 μL of the reaction mixture were transferred to the charcoal plates, which were then assembled on top of the DYNEX plates using Centrifuge Alignment Frames (catalog number MACF09604, Millipore). The unbound labeled ethanolamine was centrifuged through to the bottom plate (5 min at 2000 rpm), which was preloaded with the scintillant, as described above. The plates were sealed and left at rt for 1 h before counting on a Hewlett Packard TopCount.” for “and tested.”

[1] = human FAAH, T84 or transfected SK-N-MC cell homogenate, 3H-AEA tracer 80 nM, rt 1 h, pH 9, read-out: Assay 1 IC50

Row | SMILES | IC50 (human FAAH; [1]) [nM] | IC50 (rat FAAH) [nM] | IC50 (human FAAH) [nM]
1 | O=C(CCCC1CCN(Cc2cccc(Oc3ccccc3)c2)CC1)c1ncco1 [Example 2, 1-Oxazol-2-yl-4-[1-(3-phenoxy-benzyl)-piperidin-4-yl]-butan-1-one] | 0.4 | 4.7 | –
2 | O=C(CCCC1CCN(Cc2ccncc2)CC1)c1ncco1 [Example 6, 1-Oxazol-2-yl-4-(1-pyridin-4-ylmethyl-piperidin-4-yl)-butan-1-one] | 359 | 550 | –
3 | O=C(CCCC1CCN(Cc2cccc(F)c2)CC1)c1ncco1 [Example 8, 4-[1-(3-Fluoro-benzyl)-piperidin-4-yl]-1-oxazol-2-yl-butan-1-one] | 100 | 350 | –
4 | O=C(CCCC1CCN(Cc2ccc(Cl)cc2)CC1)c1ncco1 [Example 9, 4-[1-(4-Chloro-benzyl)-piperidin-4-yl]-1-oxazol-2-yl-butan-1-one] | 66 | 354 | –
5 | O=C(CCCC1CCN(Cc2cccc(Cl)c2)CC1)c1ncco1 [Example 10, 4-[1-(3-Chloro-benzyl)-piperidin-4-yl]-1-oxazol-2-yl-butan-1-one] | 60 | 80 | –
6 | COc1ccc(CN2CCC(CCCC(=O)c3ncco3)CC2)cc1 [Example 16, 4-[1-(4-Methoxy-benzyl)-piperidin-4-yl]-1-oxazol-2-yl-butan-1-one] | – | 663 | 132
7 | COc1cccc(CN2CCC(CCCC(=O)c3ncco3)CC2)c1 [Example 17, 4-[1-(3-Methoxy-benzyl)-piperidin-4-yl]-1-oxazol-2-yl-butan-1-one] | 36 | 308 | –
8 | O=C(CCCC1CCN(CC2CCCCC2)CC1)c1ncco1 [Example 86, 4-(1-Cyclohexylmethyl-piperidin-4-yl)-1-oxazol-2-yl-butan-1-one] | 9500 | – | –
9 | COc1ccccc1CN1CCC(CCCC(=O)c2ncco2)CC1 [Example 87, 4-[1-(2-Methoxy-benzyl)-piperidin-4-yl]-1-oxazol-2-yl-butan-1-one] | 4000 | – | –
10 | O=C(CCCC1CCN(CCc2ccccc2)CC1)c1ncco1 [Example 95, 1-Oxazol-2-yl-4-(1-phenethyl-piperidin-4-yl)-butan-1-one] | – | 1200 | –

Further lines, with some results ahead:

Row | IC50 (human FAAH; [1]) [nM] | IC50 (rat FAAH) [nM] | SMILES | IC50 (human FAAH) [nM]
11 | 1.8 | 27 | CC(C)(C)OC(=O)N1CCC(CCCC(=O)c2ncco2)CC1 [Example 1, 4-(4-Oxazol-2-yl-4-oxo-butyl)-piperidine-1-carboxylic acid tert-butyl ester] | –
12 | 315 | 900 | O=C(CCCC1CCN(Cc2ccccc2)CC1)c1ncco1 [Example 3, 4-(1-Benzyl-piperidin-4-yl)-1-oxazol-2-yl-butan-1-one] | –
13 | 3000 | – | O=C(CCCC1CCN(Cc2ccccn2)CC1)c1ncco1 [Example 4, 1-Oxazol-2-yl-4-(1-pyridin-2-ylmethyl-piperidin-4-yl)-butan-1-one] | –
14 | 1200 | 3000 | O=C(CCCC1CCN(Cc2cccnc2)CC1)c1ncco1 [Example 5, 1-Oxazol-2-yl-4-(1-pyridin-3-ylmethyl-piperidin-4-yl)-butan-1-one] | –
15 | 850 | 1000 | O=C(CCCC1CCN(Cc2ccc(F)cc2)CC1)c1ncco1 [Example 7, 4-[1-(4-Fluoro-benzyl)-piperidin-4-yl]-1-oxazol-2-yl-butan-1-one] | –
16 | 36 | 95 | O=C(CCCC1CCN(Cc2ccc(Br)c(Br)c2)CC1)c1ncco1 [Example 11, 4-[1-(3,4-Dibromo-benzyl)-piperidin-4-yl]-1-oxazol-2-yl-butan-1-one] | –
17 | 50 | 70 | O=C(CCCC1CCN(Cc2ccc(Cl)c(Cl)c2)CC1)c1ncco1 [Example 12, 4-[1-(3,4-Dichloro-benzyl)-piperidin-4-yl]-1-oxazol-2-yl-butan-1-one] | –
18 | 50 | 180 | O=C(CCCC1CCN(Cc2ccc(F)c(Cl)c2)CC1)c1ncco1 [Example 13, 4-[1-(3-Chloro-4-fluoro-benzyl)-piperidin-4-yl]-1-oxazol-2-yl-butan-1-one] | –
19 | 86 | 1000 | O=C(CCCC1CCN(Cc2ccc3c(c2)OCO3)CC1)c1ncco1 [Example 14, 4-(1-Benzo[1,3]dioxol-5-ylmethyl-Piperidin-4-yl)-1-oxazol-2-yl-butan-1-one] | –
20 | 4 | 2.4 | O=C(CCCC1CCN(Cc2ccc(Oc3ccccc3)cc2)CC1)c1ncco1 [Example 15, 1-Oxazol-2-yl-4-[1-(4-phenoxy-benzyl)-piperidin-4-yl]-butan-1-one] | –
21 | 4000 | – | Cc1cc(CC(=O)N2CCC(CCCC(=O)c3ncco3)CC2)on1 [Example 43, 4-{1-[2-(3-Methyl-isoxazol-5-yl)-acetyl]-piperidin-4-yl}-1-oxazol-2-yl-butan-1-one] | –
22 | 2000 | – | O=C(CCCC1CCN(Cc2ccc(N3CCOCC3)cc2)CC1)c1ncco1 [Example 106, 4-[1-(4-Morpholin-4-yl-benzyl)-piperidin-4-yl]-1-oxazol-2-yl-butan-1-one] | –
